From BigSolDB 2.1

O=C(Nc1ccc(Cl)cc1)Nc1ccc(Cl)c(Cl)c1
solubility (mole fraction)
Settings | 288.15 K | 293.15 K | 298.15 K | 303.15 K | 308.15 K | 313.15 K | 318.15 K
in 1,4-dioxane | 0.00103 | 0.00176 | 0.00239 | 0.00403 | 0.00658 | 0.00931 | 0.0141
in cyclohexane | 1.68e-07 | 2.73e-07 | 4.23e-07 | 7.31e-07 | 1.17e-06 | 1.82e-06 | 2.72e-06
